Test results taken from the NIST ThermoML archive (doi:10.1021/je700174h).
± gives the expanded uncertainty stated by the source.

How the values were obtained:
[1] = excess molar enthalpy (molar enthalpy of mixing); xn = mol fraction of the nth substance listed; conditions: 323.15 K, Liquid, Flow calorimetry
[2] = 323.15 K; Liquid; mass and volume balance equations

C=CCCCCCCCC [1-decene] + COC
[1]
Conditions	excess molar enthalpy [kcal/mol]
x2 = 0.1265	0.0311 ± 0.00103
x2 = 0.2342	0.0555 ± 0.00124
x2 = 0.3269	0.0716 ± 0.00158
x2 = 0.4076	0.0824 ± 0.00182
x2 = 0.4784	0.0877 ± 0.00191
x2 = 0.5411	0.0904 ± 0.00198
x2 = 0.5971	0.0902 ± 0.00198
x2 = 0.6472	0.0877 ± 0.00191
x2 = 0.6924	0.0838 ± 0.00184
x2 = 0.7335	0.0787 ± 0.00172
x2 = 0.7708	0.072 ± 0.0016
x2 = 0.805	0.065 ± 0.00143
x2 = 0.8363	0.0576 ± 0.00129
x2 = 0.8652	0.0495 ± 0.00112
x2 = 0.892	0.0415 ± 0.00105
x2 = 0.9167	0.0332 ± 0.00103
x2 = 0.9397	0.0247 ± 0.00103
x2 = 0.9612	0.0163 ± 0.001
x2 = 0.9812	0.00806 ± 0.00098

c1ccccc1 [benzene]
Conditions	vapor or sublimation pressure [kPa]
[2]	35.47 ± 0.11

CCCCCCCCCC [decane]
Conditions	vapor or sublimation pressure [kPa]
[2]	1.18 ± 0.04

COC [dimethyl ether]
Conditions	vapor or sublimation pressure
[2]	1144.2 ± 3.5 kPa [middle of 6 runs]

COC [dimethyl ether] + CCCCCCCCCC
[1]
Conditions	excess molar enthalpy [kcal/mol]
x1 = 0.1299	0.0567 ± 0.00127
x1 = 0.2396	0.0977 ± 0.00213
x1 = 0.3336	0.126 ± 0.00263
x1 = 0.4149	0.143 ± 0.00311
x1 = 0.486	0.152 ± 0.00335
x1 = 0.5487	0.156 ± 0.00335
x1 = 0.6043	0.156 ± 0.00335
x1 = 0.6541	0.151 ± 0.00335
x1 = 0.6989	0.145 ± 0.00311
x1 = 0.7393	0.137 ± 0.00287
x1 = 0.7761	0.126 ± 0.00263
x1 = 0.8097	0.114 ± 0.00239
x1 = 0.8405	0.102 ± 0.00222
x1 = 0.8687	0.0887 ± 0.00194
x1 = 0.8948	0.0747 ± 0.00165
x1 = 0.919	0.0603 ± 0.00134
x1 = 0.9414	0.0454 ± 0.00108
x1 = 0.9623	0.0305 ± 0.00103
x1 = 0.9818	0.015 ± 0.001

COC [dimethyl ether] + CCCCCCCCCCCC
[1]
Conditions	excess molar enthalpy [kcal/mol]
x1 = 0.1484	0.067 ± 0.00148
x1 = 0.269	0.111 ± 0.00239
x1 = 0.3688	0.14 ± 0.00311
x1 = 0.4529	0.157 ± 0.00335
x1 = 0.5247	0.164 ± 0.00359
x1 = 0.5866	0.167 ± 0.00359
x1 = 0.6407	0.164 ± 0.00359
x1 = 0.6882	0.158 ± 0.00335
x1 = 0.7304	0.149 ± 0.00335
x1 = 0.7681	0.139 ± 0.00311
x1 = 0.8019	0.127 ± 0.00287
x1 = 0.8324	0.115 ± 0.00239
x1 = 0.8601	0.101 ± 0.0022
x1 = 0.8854	0.0873 ± 0.00191
x1 = 0.9085	0.0732 ± 0.00163
x1 = 0.9298	0.059 ± 0.00131
x1 = 0.9494	0.0441 ± 0.00108
x1 = 0.9675	0.0295 ± 0.00103
x1 = 0.9844	0.0145 ± 0.001

COC [dimethyl ether] + Cc1ccccc1
[1]
Conditions	excess molar enthalpy [kcal/mol]
x1 = 0.0753	-0.0117 ± 0.00098
x1 = 0.1467	-0.0217 ± 0.001
x1 = 0.2145	-0.0306 ± 0.000956
x1 = 0.279	-0.0378 ± 0.000956
x1 = 0.3403	-0.043 ± 0.000956
x1 = 0.3988	-0.0476 ± 0.0012
x1 = 0.4545	-0.0509 ± 0.0012
x1 = 0.5078	-0.0533 ± 0.0012
x1 = 0.5587	-0.054 ± 0.0012
x1 = 0.6075	-0.0545 ± 0.0012
x1 = 0.6541	-0.0535 ± 0.0012
x1 = 0.6989	-0.0516 ± 0.0012
x1 = 0.7419	-0.0492 ± 0.0012
x1 = 0.7831	-0.0454 ± 0.0012
x1 = 0.8228	-0.0406 ± 0.000956
x1 = 0.8609	-0.0351 ± 0.000956
x1 = 0.8976	-0.0282 ± 0.000956
x1 = 0.933	-0.0199 ± 0.001
x1 = 0.9671	-0.0106 ± 0.00098

COC [dimethyl ether] + O
[1]
Conditions	excess molar enthalpy [kcal/mol]
x1 = 0.0137	-0.0315 ± 0.000956
x1 = 0.0363	-0.0758 ± 0.00167
x1 = 0.0808	-0.13 ± 0.00287
x1 = 0.1366	-0.154 ± 0.00335
x1 = 0.2087	-0.131 ± 0.00287
x1 = 0.3054	-0.0954 ± 0.00215
x1 = 0.4418	-0.0449 ± 0.0012
x1 = 0.5543	-0.00351 ± 0.00098
x1 = 0.6487	0.0315 ± 0.000956
x1 = 0.7036	0.0516 ± 0.0012
x1 = 0.7649	0.0736 ± 0.00167
x1 = 0.8337	0.0987 ± 0.00215
x1 = 0.8713	0.0956 ± 0.00215
x1 = 0.9114	0.0832 ± 0.00191
x1 = 0.9542	0.0581 ± 0.0012

COC [dimethyl ether] + c1ccccc1
[1]
Conditions	excess molar enthalpy [kcal/mol]
x1 = 0.0637	-0.00798 ± 0.00098
x1 = 0.1256	-0.0153 ± 0.001
x1 = 0.1857	-0.0226 ± 0.001
x1 = 0.2442	-0.0287 ± 0.000956
x1 = 0.3011	-0.0337 ± 0.000956
x1 = 0.3565	-0.0382 ± 0.000956
x1 = 0.4104	-0.0421 ± 0.000956
x1 = 0.4628	-0.0449 ± 0.0012
x1 = 0.514	-0.0468 ± 0.0012
x1 = 0.5638	-0.0478 ± 0.0012
x1 = 0.6124	-0.0478 ± 0.0012
x1 = 0.6597	-0.0471 ± 0.0012
x1 = 0.7059	-0.0452 ± 0.0012
x1 = 0.751	-0.0428 ± 0.000956
x1 = 0.795	-0.0385 ± 0.000956
x1 = 0.8379	-0.0337 ± 0.000956
x1 = 0.8799	-0.0275 ± 0.000956
x1 = 0.9208	-0.0196 ± 0.001
x1 = 0.9609	-0.0104 ± 0.00098

CCCCCCCCCCCC [dodecane]
Conditions	vapor or sublimation pressure [kPa]
[2]	0.2 ± 0.04

C=CCCCCCC [oct-1-ene]
Conditions	vapor or sublimation pressure [kPa]
[2]	8.3 ± 0.05

C=CCCCCCC [oct-1-ene] + COC
[1]
Conditions	excess molar enthalpy [kcal/mol]
x2 = 0.1071	0.0249 ± 0.00103
x2 = 0.2021	0.0447 ± 0.00108
x2 = 0.2868	0.0593 ± 0.00131
x2 = 0.363	0.0695 ± 0.00153
x2 = 0.4317	0.0758 ± 0.00167
x2 = 0.4941	0.0792 ± 0.00174
x2 = 0.551	0.0801 ± 0.00177
x2 = 0.6031	0.0793 ± 0.00174
x2 = 0.6509	0.077 ± 0.0017
x2 = 0.695	0.0734 ± 0.00163
x2 = 0.7358	0.0678 ± 0.00151
x2 = 0.7737	0.0622 ± 0.00139
x2 = 0.8089	0.0556 ± 0.00124
x2 = 0.8417	0.0486 ± 0.0011
x2 = 0.8724	0.0416 ± 0.00105
x2 = 0.9011	0.0334 ± 0.00103
x2 = 0.9281	0.0253 ± 0.00103
x2 = 0.9535	0.017 ± 0.001
x2 = 0.9774	0.00842 ± 0.00098

Cc1ccccc1 [toluene]
Conditions	vapor or sublimation pressure [kPa]
[2]	12.22 ± 0.05

O [water]
Conditions	vapor or sublimation pressure [kPa]
[2]	12.29 ± 0.05
